Measured values reported in patent publication US9938269B2, “Inhibitor compounds of phosphodiesterase type 10A” (ABBVIE INC., priority 2011, dated 2018).
Structures can show the parent of a compound that is named as a salt.

Biological target: T1, PDE10A (human) (Homo sapiens, UniProt Q9Y233)
T1 construct: purchased BPS Bioscience
Assay: Measurement of PDE activity (HTRF cAMP kit), human PDE10A
Assay type: biochemical
Conditions: PDE enzymatic reaction, substrate 20 nM for PDE10, 60 minutes at 29 C
Method in brief: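 Recombinant human PDE10A (10–250 pM range across PDEs) with 20 nM cAMP substrate in 20 mM Tris-HCl pH 7.5, 10 mM MgCl2, 0.1% BSA, compound pre-mixed with enzyme. Ran 60 min at 29 °C. Remaining cAMP read by HTRF, converted to % of uninhibited activity, and IC50 fitted.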

T1 sequence (Q9Y233 whole entry): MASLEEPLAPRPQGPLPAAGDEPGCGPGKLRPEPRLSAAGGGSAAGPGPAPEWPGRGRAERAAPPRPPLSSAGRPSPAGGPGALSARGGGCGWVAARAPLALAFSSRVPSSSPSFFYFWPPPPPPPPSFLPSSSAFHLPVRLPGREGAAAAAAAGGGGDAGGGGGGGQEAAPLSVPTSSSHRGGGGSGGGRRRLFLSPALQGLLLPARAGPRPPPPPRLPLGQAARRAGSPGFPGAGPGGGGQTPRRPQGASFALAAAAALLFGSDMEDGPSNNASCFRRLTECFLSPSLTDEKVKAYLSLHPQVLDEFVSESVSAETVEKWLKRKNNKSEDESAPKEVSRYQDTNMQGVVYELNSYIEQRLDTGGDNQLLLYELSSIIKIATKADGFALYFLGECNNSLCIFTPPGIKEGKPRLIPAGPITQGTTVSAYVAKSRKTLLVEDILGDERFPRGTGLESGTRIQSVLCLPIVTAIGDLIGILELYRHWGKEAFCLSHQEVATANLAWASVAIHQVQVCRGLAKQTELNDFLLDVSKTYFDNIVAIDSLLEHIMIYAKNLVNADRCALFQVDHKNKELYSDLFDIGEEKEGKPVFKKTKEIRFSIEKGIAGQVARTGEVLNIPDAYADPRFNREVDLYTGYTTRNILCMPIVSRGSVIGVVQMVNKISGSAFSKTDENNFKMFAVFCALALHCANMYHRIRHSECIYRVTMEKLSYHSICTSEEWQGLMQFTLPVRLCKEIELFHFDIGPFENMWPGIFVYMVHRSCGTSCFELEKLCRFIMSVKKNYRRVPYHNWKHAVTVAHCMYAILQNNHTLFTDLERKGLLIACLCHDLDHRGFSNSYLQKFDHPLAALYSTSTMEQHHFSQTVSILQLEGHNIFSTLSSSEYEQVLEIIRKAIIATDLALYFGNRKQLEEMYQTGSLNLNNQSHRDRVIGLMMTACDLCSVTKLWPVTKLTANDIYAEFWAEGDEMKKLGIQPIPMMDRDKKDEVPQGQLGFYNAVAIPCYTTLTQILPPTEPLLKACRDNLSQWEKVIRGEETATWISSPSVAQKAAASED

Row | SMILES | IC50
1 | O=C1c2c(cccc2-c2ccncc2)CN1CCc1nc2ccccc2n1CCN1CCOCC1 [Example 292, 2-{2-[1-(2-Morpholin-4-yl-ethyl)-1H-benzoimidazol-2-yl]-ethyl}-7-pyridin-4-yl-2,3-dihydro-isoindol-1-one trifluoroacetate] | < 100 nM
2 | CN(C)CCn1c(CCN2Cc3cccc(-c4ccncc4)c3C2=O)nc2ccccc21 [Example 293, 2-{2-[1-(2-Dimethylamino-ethyl)-1H-benzoimidazol-2-yl]-ethyl}-7-pyridin-4-yl-2,3-dihydro-isoindol-1-one trifluoroacetate] | < 100 nM
3 | O=C1c2c(-c3ccncc3)ccc(OCF)c2CN1CCc1ccc2ccccc2n1 [Example 299, 4-Fluoromethoxy-7-pyridin-4-yl-2-(2-quinolin-2-yl-ethyl)-2,3-dihydro-isoindol-1-one] | < 100 nM
4 | Cc1ccc2c(c1)nc(CCN1Cc3cccc(-c4ccncc4)c3C1=O)n2C [Example 301, 2-[2-(1,5-Dimethyl-1H-benzoimidazol-2-yl)-ethyl]-7-pyridin-4-yl-2,3-dihydro-isoindol-1-one trifluoroacetate] | < 100 nM
5 | CCCn1c(CCN2Cc3cccc(-c4ccncc4)c3C2=O)nc2ccccc21 [Example 302, 2-[2-(1-Propyl-1H-benzoimidazol-2-yl)-ethyl]-7-pyridin-4-yl-2,3-dihydro-isoindol-1-one trifluoroacetate] | < 100 nM
6 | CC(C)n1c(CCN2Cc3cccc(-c4ccncc4)c3C2=O)nc2ccccc21 [Example 303, 2-[2-(1-Isopropyl-1H-benzoimidazol-2-yl)-ethyl]-7-pyridin-4-yl-2,3-dihydro-isoindol-1-one trifluoroacetate] | 100 to 200 nM
7 | CC(C)n1c(CCN2Cc3cccc(N4CCOCC4)c3C2=O)nc2ccccc21 [Example 304, 2-[2-(1-Isopropyl-1H-benzoimidazol-2-yl)-ethyl]-7-morpholin-4-yl-2,3-dihydro-isoindol-1-one trifluoroacetate] | 100 to 200 nM
8 | CCCn1c(CCN2Cc3cccc(N4CCOCC4)c3C2=O)nc2ccccc21 [Example 305, 7-Morpholin-4-yl-2-[2-(1-propyl-1H-benzoimidazol-2-yl)-ethyl]-2,3-dihydro-isoindol-1-one trifluoroacetate] | 200 to 500 nM
9 | Cn1c(CCN2Cc3cccc(N4CCOCC4)c3C2=O)nc2c(F)cccc21 [Example 307, 2-[2-(4-Fluoro-1-methyl-1H-benzoimidazol-2-yl)-ethyl]-7-morpholin-4-yl-2,3-dihydro-isoindol-1-one trifluoroacetate] | 200 to 500 nM
10 | O=C1c2c(C3CCOC3)ccnc2CN1CCc1ccc2ccccc2n1 (stereo not shown) [Example 309, 6-(2-Quinolin-2-yl-ethyl)-4-(tetrahydro-furan-3-yl)-6,7-dihydro-pyrrolo[3,4-b]pyridin-5-one] | < 100 nM
11 | CCOC(=O)C1CCN(c2ccnc3c2C(=O)N(CCc2ccc4ccccc4n2)C3)CC1 [Example 319, 1-[5-Oxo-6-(2-quinolin-2-yl-ethyl)-6,7-dihydro-5H-pyrrolo[3,4-b]pyridin-4-yl]-piperidine-4-carboxylic acid ethyl ester] | 200 to 500 nM
12 | CN1CCN(S(=O)(=O)c2cccc3c2CN(c2cccc4c2CN(CCc2ccc5ccccc5n2)C4=O)CC3)CC1 [Example 321, 4-[8-(4-Methyl-piperazine-1-sulfonyl)-3,4-dihydro-1H-isoquinolin-2-yl]-2-(2-quinolin-2-yl-ethyl)-2,3-dihydro-isoindol-1-one] | 200 to 500 nM
13 | Cc1cnccc1-c1ccnc2c1C(=O)N(CCc1ccc3ccccc3n1)C2 [Example 322, 4-(3-Methyl-pyridin-4-yl)-6-(2-quinolin-2-yl-ethyl)-6,7-dihydro-pyrrolo[3,4-b]pyridin-5-one] | < 100 nM
14 | O=C1c2c(-c3cc[nH]n3)ccnc2CN1CCc1ccc2ccccc2n1 [Example 323, 4-(1H-Pyrazol-3-yl)-6-(2-quinolin-2-yl-ethyl)-6,7-dihydro-pyrrolo[3,4-b]pyridin-5-one] | < 100 nM
15 | O=C1c2c(-c3ccsc3)ccnc2CN1CCc1ccc2ccccc2n1 [Example 330, 6-(2-Quinolin-2-yl-ethyl)-4-thiophen-3-yl-6,7-dihydro-pyrrolo[3,4-b]pyridin-5-one] | < 100 nM
16 | O=C1c2c(-c3ccoc3)ccnc2CN1CCc1ccc2ccccc2n1 [Example 331, 4-Furan-3-yl-6-(2-quinolin-2-yl-ethyl)-6,7-dihydro-pyrrolo[3,4-b]pyridin-5-one] | < 100 nM
17 | CCn1cc(-c2ccnc3c2C(=O)N(CCc2ccc4ccccc4n2)C3)cn1 [Example 333, 4-(1-Ethyl-1H-pyrazol-4-yl)-6-(2-quinolin-2-yl-ethyl)-6,7-dihydro-pyrrolo[3,4-b]pyridin-5-one] | 100 to 200 nM
18 | Cc1ccsc1-c1ccnc2c1C(=O)N(CCc1ccc3ccccc3n1)C2 [Example 336, 4-(3-Methyl-thiophen-2-yl)-6-(2-quinolin-2-yl-ethyl)-6,7-dihydro-pyrrolo[3,4-b]pyridin-5-one] | 100 to 200 nM
19 | CN(C)c1ncc(-c2cccc3c2CN(CCc2ccc4ccccc4n2)C3=O)cn1 [Example 341, 4-(2-Dimethylamino-pyrimidin-5-yl)-2-(2-quinolin-2-yl-ethyl)-2,3-dihydro-isoindol-1-one] | 100 to 200 nM
20 | Cc1ncc(-c2cccc3c2CN(CCc2ccc4ccccc4n2)C3=O)s1 [Example 342, 4-(2-Methyl-thiazol-5-yl)-2-(2-quinolin-2-yl-ethyl)-2,3-dihydro-isoindol-1-one] | < 100 nM
21 | COc1cc(-c2cccc3c2CN(CCc2ccc4ccccc4n2)C3=O)ccn1 [Example 344, 4-(2-Methoxy-pyridin-4-yl)-2-(2-quinolin-2-yl-ethyl)-2,3-dihydro-isoindol-1-one] | 100 to 200 nM
22 | O=C1c2cccc(-c3ccsc3)c2CN1CCc1ccc2ccccc2n1 [Example 345, 2-(2-Quinolin-2-yl-ethyl)-4-thiophen-3-yl-2,3-dihydro-isoindol-1-one] | < 100 nM
23 | O=C1c2cccc(-c3ccoc3)c2CN1CCc1ccc2ccccc2n1 [Example 346, 4-Furan-3-yl-2-(2-quinolin-2-yl-ethyl)-2,3-dihydro-isoindol-1-one] | < 100 nM
24 | CCn1cc(-c2cccc3c2CN(CCc2ccc4ccccc4n2)C3=O)cn1 [Example 347, 4-(1-Ethyl-1H-pyrazol-4-yl)-2-(2-quinolin-2-yl-ethyl)-2,3-dihydro-isoindol-1-one] | 100 to 200 nM
25 | Cc1cc(-c2cccc3c2CN(CCc2ccc4ccccc4n2)C3=O)n(C)n1 [Example 348, 4-(2,5-Dimethyl-2H-pyrazol-3-yl)-2-(2-quinolin-2-yl-ethyl)-2,3-dihydro-isoindol-1-one] | 100 to 200 nM
26 | Cc1noc(C)c1-c1cccc2c1CN(CCc1ccc3ccccc3n1)C2=O [Example 349, 4-(3,5-Dimethyl-isoxazol-4-yl)-2-(2-quinolin-2-yl-ethyl)-2,3-dihydro-isoindol-1-one] | 200 to 500 nM
27 | Cc1cnc(-c2cccc3c2CN(CCc2ccc4ccccc4n2)C3=O)cn1 [Example 350, 4-(5-Methyl-pyrazin-2-yl)-2-(2-quinolin-2-yl-ethyl)-2,3-dihydro-isoindol-1-one] | < 100 nM
28 | Cc1ccsc1-c1cccc2c1CN(CCc1ccc3ccccc3n1)C2=O [Example 351, 4-(3-Methyl-thiophen-2-yl)-2-(2-quinolin-2-yl-ethyl)-2,3-dihydro-isoindol-1-one] | 200 to 500 nM
